From PubChem BioAssay (NCI)
In brackets after ≈: the same amount, converted by molar mass.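 Protocol summary: plate cells (96-well), add compound at 5 concentrations, incubate 48 h, interpolate endpoints linearly. GI50 marks 50% less growth. TGI denotes the concentration required for complete inhibition of growth.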

Experiments:
Assay in all cases: DTP human tumour cell line panel, 48 h
A498 renal = system: A498 renal
BT-549 breast = system: BT-549 breast
COLO 205 colon = system: COLO 205 colon
HOP-92 NSCLC = system: HOP-92 NSCLC
M14 melanoma = system: M14 melanoma
MOLT-4 leukemia = system: MOLT-4 leukemia
SK-OV-3 ovarian = system: SK-OV-3 ovarian
SR leukemia = system: SR leukemia
UO-31 renal = system: UO-31 renal
786-0 renal = system: 786-0 renal
A549 NSCLC = system: A549 NSCLC
ACHN renal = system: ACHN renal
CAKI-1 renal = system: CAKI-1 renal
CCRF-CEM leukemia = system: CCRF-CEM leukemia
DU-145 prostate = system: DU-145 prostate
EKVX NSCLC = system: EKVX NSCLC
HCC-2998 colon = system: HCC-2998 colon
HCT-116 colon = system: HCT-116 colon
HCT-15 colon = system: HCT-15 colon
HL-60(TB) leukemia = system: HL-60(TB) leukemia
HOP-62 NSCLC = system: HOP-62 NSCLC
HS 578T breast = system: HS 578T breast
HT29 colon = system: HT29 colon
IGROV1 ovarian = system: IGROV1 ovarian
K-562 leukemia = system: K-562 leukemia
KM12 colon = system: KM12 colon
LOX IMVI melanoma = system: LOX IMVI melanoma
MALME-3M melanoma = system: MALME-3M melanoma
MDA-MB-231 breast = system: MDA-MB-231 breast
MDA-MB-435 = system: MDA-MB-435
NCI-H226 lung = system: NCI-H226 lung
NCI-H23 lung = system: NCI-H23 lung
NCI-H460 lung = system: NCI-H460 lung
NCI-H522 lung = system: NCI-H522 lung
NCI/ADR-RES ovarian = system: NCI/ADR-RES ovarian
OVCAR-3 ovarian = system: OVCAR-3 ovarian
OVCAR-4 ovarian = system: OVCAR-4 ovarian
OVCAR-5 ovarian = system: OVCAR-5 ovarian
OVCAR-8 ovarian = system: OVCAR-8 ovarian
PC-3 prostate = system: PC-3 prostate
RPMI-8226 leukemia = system: RPMI-8226 leukemia
RXF 393 renal = system: RXF 393 renal
SF-268 CNS = system: SF-268 CNS
SF-295 CNS = system: SF-295 CNS
SF-539 CNS = system: SF-539 CNS
SK-MEL-2 melanoma = system: SK-MEL-2 melanoma
SK-MEL-28 melanoma = system: SK-MEL-28 melanoma
SK-MEL-5 melanoma = system: SK-MEL-5 melanoma
SN12C renal = system: SN12C renal
SNB-19 CNS = system: SNB-19 CNS
SNB-75 CNS = system: SNB-75 CNS
SW-620 colon = system: SW-620 colon
TK-10 renal = system: TK-10 renal
U251 CNS = system: U251 CNS
UACC-257 melanoma = system: UACC-257 melanoma
UACC-62 melanoma = system: UACC-62 melanoma

N#Cc1cc2c(N)ncnc2nc1N1CCCC1
GI50 (A498 renal): 36.9 µg/mL | GI50 (BT-549 breast): 49.3 µg/mL | GI50 (COLO 205 colon): 83.6 µg/mL | GI50 (HOP-92 NSCLC): 57.2 µg/mL | GI50 (M14 melanoma): 48.4 µg/mL | GI50 (MOLT-4 leukemia): 85.2 µg/mL | GI50 (SK-OV-3 ovarian): 54.4 µg/mL | GI50 (SR leukemia): 66.4 µg/mL (≈ 276 µM) | GI50 (UO-31 renal): 45.7 µg/mL

CC(C)Cc1ccc(C(C)C(=O)NCc2ccc(Cn3c(=O)sn(CCCCl)c3=O)cc2)cc1 (centres undefined)
GI50 (786-0 renal): 551 nM | TGI (786-0 renal): 1980 nM | GI50 (A498 renal): 1260 nM | TGI (A498 renal): 2870 nM | GI50 (A549 NSCLC): 1790 nM | TGI (A549 NSCLC): 3.72 µM | GI50 (ACHN renal): 746 nM | TGI (ACHN renal): 2020 nM | GI50 (BT-549 breast): 1090 nM | TGI (BT-549 breast): 2700 nM | GI50 (CAKI-1 renal): 619 nM | TGI (CAKI-1 renal): 2080 nM | GI50 (CCRF-CEM leukemia): 361 nM | TGI (CCRF-CEM leukemia): > 100 µM | GI50 (COLO 205 colon): 1120 nM | TGI (COLO 205 colon): 2760 nM | GI50 (DU-145 prostate): 1460 nM | TGI (DU-145 prostate): 2820 nM | GI50 (EKVX NSCLC): 1470 nM | TGI (EKVX NSCLC): 2780 nM | GI50 (HCC-2998 colon): 1850 nM | TGI (HCC-2998 colon): 3.37 µM | GI50 (HCT-116 colon): 235 nM | TGI (HCT-116 colon): 783 nM | GI50 (HCT-15 colon): 511 nM | TGI (HCT-15 colon): 2050 nM | GI50 (HL-60(TB) leukemia): 3.82 µM | TGI (HL-60(TB) leukemia): > 100 µM | GI50 (HOP-62 NSCLC): 1280 nM | TGI (HOP-62 NSCLC): 2730 nM | GI50 (HOP-92 NSCLC): 814 nM | TGI (HOP-92 NSCLC): 2260 nM | GI50 (HS 578T breast): 1820 nM | TGI (HS 578T breast): 4.9 µM | GI50 (HT29 colon): 1600 nM | TGI (HT29 colon): 2940 nM | GI50 (IGROV1 ovarian): 744 nM | TGI (IGROV1 ovarian): 2210 nM | GI50 (K-562 leukemia): 412 nM | TGI (K-562 leukemia): > 100 µM | GI50 (KM12 colon): 1760 nM | TGI (KM12 colon): 3.45 µM | GI50 (LOX IMVI melanoma): 1180 nM | TGI (LOX IMVI melanoma): 2520 nM | GI50 (M14 melanoma): 621 nM | TGI (M14 melanoma): 2200 nM | GI50 (MALME-3M melanoma): 1560 nM | TGI (MALME-3M melanoma): 2970 nM | GI50 (MDA-MB-231 breast): 1370 nM | TGI (MDA-MB-231 breast): 2720 nM | GI50 (MDA-MB-435): 1140 nM | TGI (MDA-MB-435): 2440 nM | GI50 (MOLT-4 leukemia): 962 nM | TGI (MOLT-4 leukemia): > 100 µM | GI50 (NCI-H226 lung): 1430 nM | TGI (NCI-H226 lung): 3.13 µM | GI50 (NCI-H23 lung): 1590 nM | TGI (NCI-H23 lung): 3.26 µM | GI50 (NCI-H460 lung): 1650 nM | TGI (NCI-H460 lung): 3.34 µM | GI50 (NCI-H522 lung): 458 nM | TGI (NCI-H522 lung): 2010 nM | GI50 (NCI/ADR-RES ovarian): 2110 nM | TGI (NCI/ADR-RES ovarian): 8.25 µM | GI50 (OVCAR-3 ovarian): 738 nM | TGI (OVCAR-3 ovarian): 2030 nM | GI50 (OVCAR-4 ovarian): 1530 nM | TGI (OVCAR-4 ovarian): 3.02 µM | GI50 (OVCAR-5 ovarian): 1750 nM | TGI (OVCAR-5 ovarian): 3.29 µM | GI50 (OVCAR-8 ovarian): 1210 nM | TGI (OVCAR-8 ovarian): 2870 nM | GI50 (PC-3 prostate): 677 nM | TGI (PC-3 prostate): 2270 nM | GI50 (RPMI-8226 leukemia): 375 nM | TGI (RPMI-8226 leukemia): 6.18 µM | GI50 (RXF 393 renal): 1170 nM | TGI (RXF 393 renal): 2410 nM | GI50 (SF-268 CNS): 1600 nM | TGI (SF-268 CNS): 3.02 µM | GI50 (SF-295 CNS): 4.9 µM | TGI (SF-295 CNS): 17.5 µM | GI50 (SF-539 CNS): 1480 nM | TGI (SF-539 CNS): 2810 nM | GI50 (SK-MEL-2 melanoma): 1430 nM | TGI (SK-MEL-2 melanoma): 3 µM | GI50 (SK-MEL-28 melanoma): 1650 nM | TGI (SK-MEL-28 melanoma): 3.02 µM | GI50 (SK-MEL-5 melanoma): 1630 nM | TGI (SK-MEL-5 melanoma): 2990 nM | GI50 (SK-OV-3 ovarian): 6.13 µM | TGI (SK-OV-3 ovarian): 20 µM | GI50 (SN12C renal): 1340 nM | TGI (SN12C renal): 2650 nM | GI50 (SNB-19 CNS): 1710 nM | TGI (SNB-19 CNS): 3.3 µM | GI50 (SNB-75 CNS): 445 nM | TGI (SNB-75 CNS): 2040 nM | GI50 (SW-620 colon): 497 nM | TGI (SW-620 colon): 1900 nM | GI50 (TK-10 renal): 493 nM | TGI (TK-10 renal): 1850 nM | GI50 (U251 CNS): 1630 nM | TGI (U251 CNS): 3.01 µM | GI50 (UACC-257 melanoma): 1560 nM | TGI (UACC-257 melanoma): 2980 nM | GI50 (UACC-62 melanoma): 1420 nM | TGI (UACC-62 melanoma): 2760 nM | GI50 (UO-31 renal): 672 nM | TGI (UO-31 renal): 2080 nM
